# Laboratory results published in patent US7893025B2, “Use of growth hormone releasing factor analogs in treating patients suffering from wasting” (Theratechnolgies Inc., priority 2003, dated 2011).
# Assay: Adverse events and safety laboratory parameters; discontinuations
# Assay type: in vivo, human
# Conditions: 2 mg group, following 1 month of treatment
# Method: The results presented herein were obtained from a multicentre, randomized, double-blind, placebo-controlled study. The compound TH9507 was administered by subcutaneous injection daily (1 or 2 mg dose) for a three-month period. Patients were of both genders, aged 50 years or older, with stable COPD as per the 1995 American Thoracic Society criteria.
# Adverse events and safety laboratory parameters (haematology, biochemistry, urinalysis) were measured using standard laboratory methods.
structure (smiles),measurement,value
"CC/C=C/CC(=O)N[C@@H](Cc1ccc(O)cc1)C(=O)N[C@@H](C)C(=O)N[C@@H](CC(=O)O)C(=O)N[C@@H](C)C(=O)N[C@H](C(=O)N[C@@H](Cc1ccccc1)C(=O)N[C@H](C(=O)N[C@@H](CC(N)=O)C(=O)N[C@@H](CO)C(=O)N[C@@H](Cc1ccc(O)cc1)C(=O)N[C@@H](CCCNC(=N)N)C(=O)N[C@@H](CCCCN)C(=O)N[C@H](C(=O)N[C@@H](CC(C)C)C(=O)NCC(=O)N[C@@H](CCC(N)=O)C(=O)N[C@@H](CC(C)C)C(=O)N[C@@H](CO)C(=O)N[C@@H](C)C(=O)N[C@@H](CCCNC(=N)N)C(=O)N[C@@H](CCCCN)C(=O)N[C@@H](CC(C)C)C(=O)N[C@@H](CC(C)C)C(=O)N[C@@H](CCC(N)=O)C(=O)N[C@@H](CC(=O)O)C(=O)N[C@H](C(=O)N[C@@H](CCSC)C(=O)N[C@@H](CO)C(=O)N[C@@H](CCCNC(=N)N)C(=O)N[C@@H](CCC(N)=O)C(=O)N[C@@H](CCC(N)=O)C(=O)NCC(=O)N[C@@H](CCC(=O)O)C(=O)N[C@@H](CO)C(=O)N[C@@H](CC(N)=O)C(=O)N[C@@H](CCC(N)=O)C(=O)N[C@@H](CCC(=O)O)C(=O)N[C@@H](CCCNC(=N)N)C(=O)NCC(=O)N[C@@H](C)C(=O)N[C@@H](CCCNC(=N)N)C(=O)N[C@@H](C)C(=O)N[C@@H](CCCNC(=N)N)C(=O)N[C@@H](CC(C)C)C(N)=O)[C@@H](C)CC)C(C)C)[C@@H](C)O)[C@@H](C)CC [TH9507, (hexenoyl trans-3)hGRF(1-44)NH2]",Discontinuation possibly related to study drug,one patient in the 2 mg group who showed elevated creatine phosphokinase (CPK) and serum glutamic oxaloacetic transaminase (SGOT) values
